Active and inactive are the calls of the source. The rule behind the calls is not given here.
Legend:
[1] = target: T1, Muscarinic acetylcholine receptor M1 (Homo sapiens) (UniProt P11229); experiment: Agonist activity at human muscarinic M1 receptor at 30 uM by calcium mobilization assay relative to acetylcholine; format: functional
T1 sequence (whole entry): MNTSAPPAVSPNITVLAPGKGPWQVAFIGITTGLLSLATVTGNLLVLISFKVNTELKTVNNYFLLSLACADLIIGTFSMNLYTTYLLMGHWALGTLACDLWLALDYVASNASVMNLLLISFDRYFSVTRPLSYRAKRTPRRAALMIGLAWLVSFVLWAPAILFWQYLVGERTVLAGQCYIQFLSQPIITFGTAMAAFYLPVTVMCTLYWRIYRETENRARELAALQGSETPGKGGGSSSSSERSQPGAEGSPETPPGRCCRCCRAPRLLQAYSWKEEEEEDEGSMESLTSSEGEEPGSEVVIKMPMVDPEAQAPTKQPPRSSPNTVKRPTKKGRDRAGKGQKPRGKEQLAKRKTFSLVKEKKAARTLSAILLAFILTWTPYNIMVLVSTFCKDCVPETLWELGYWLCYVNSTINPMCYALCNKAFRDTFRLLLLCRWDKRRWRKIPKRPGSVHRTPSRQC

[2] = target: T2, Muscarinic acetylcholine receptor M4 (Homo sapiens) (UniProt P08173); experiment: Antagonist activity at human muscarinic M4 receptor assessed as remaining activity measured as percentage of maximum response generated from 80% of saturating dose of ACh at 30 uM by calcium mobilization assay; format: functional
T2 sequence (whole entry): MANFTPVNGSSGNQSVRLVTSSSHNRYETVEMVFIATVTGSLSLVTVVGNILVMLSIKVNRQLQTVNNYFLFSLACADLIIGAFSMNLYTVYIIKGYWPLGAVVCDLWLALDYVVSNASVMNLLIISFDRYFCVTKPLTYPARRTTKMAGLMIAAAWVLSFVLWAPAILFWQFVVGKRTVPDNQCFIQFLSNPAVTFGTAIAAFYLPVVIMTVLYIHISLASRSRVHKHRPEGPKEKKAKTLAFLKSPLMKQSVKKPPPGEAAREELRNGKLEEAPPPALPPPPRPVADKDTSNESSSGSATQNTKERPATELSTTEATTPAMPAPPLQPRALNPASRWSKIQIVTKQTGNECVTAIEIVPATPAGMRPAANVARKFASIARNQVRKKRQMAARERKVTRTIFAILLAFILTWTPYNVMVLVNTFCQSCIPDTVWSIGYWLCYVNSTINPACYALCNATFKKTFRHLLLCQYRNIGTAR

[3] = target: T3, Muscarinic acetylcholine receptor M5 (Homo sapiens, UniProt P08912); experiment: Agonist activity at human muscarinic M5 receptor by calcium mobilization assay; format: functional
T3 sequence (P08912 whole entry): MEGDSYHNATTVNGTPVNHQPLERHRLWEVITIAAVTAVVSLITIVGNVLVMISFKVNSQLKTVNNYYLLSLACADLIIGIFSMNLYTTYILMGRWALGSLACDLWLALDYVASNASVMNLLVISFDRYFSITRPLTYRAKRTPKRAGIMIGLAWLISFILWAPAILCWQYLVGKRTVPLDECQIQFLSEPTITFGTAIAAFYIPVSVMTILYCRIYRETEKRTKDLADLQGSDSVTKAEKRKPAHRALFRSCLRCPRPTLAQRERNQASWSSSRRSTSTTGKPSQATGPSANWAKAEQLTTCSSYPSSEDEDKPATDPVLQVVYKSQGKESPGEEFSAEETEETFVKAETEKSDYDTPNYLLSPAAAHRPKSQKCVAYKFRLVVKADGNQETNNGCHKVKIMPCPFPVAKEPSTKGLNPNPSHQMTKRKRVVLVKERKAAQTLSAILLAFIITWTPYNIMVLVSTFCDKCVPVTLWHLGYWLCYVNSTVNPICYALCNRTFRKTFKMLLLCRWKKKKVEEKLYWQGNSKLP

[4] = target: T4, Muscarinic acetylcholine receptor M1 (Homo sapiens, UniProt P11229); experiment: Agonist activity at human muscarinic M1 receptor by calcium mobilization assay; format: functional
T4 sequence (P11229 whole entry): T1 sequence (whole entry)

[5] = target: T5, Muscarinic acetylcholine receptor M4 (Homo sapiens, UniProt P08173); experiment: Antagonist activity at human muscarinic M4 receptor by calcium mobilization assay; format: functional
T5 sequence (P08173 whole entry): T2 sequence (whole entry)

[6] = target: T6, Muscarinic acetylcholine receptor M3 (Homo sapiens, UniProt P20309); experiment: Agonist activity at human muscarinic M3 receptor by calcium mobilization assay; format: functional
Target sequence in this assay (P20309 whole entry): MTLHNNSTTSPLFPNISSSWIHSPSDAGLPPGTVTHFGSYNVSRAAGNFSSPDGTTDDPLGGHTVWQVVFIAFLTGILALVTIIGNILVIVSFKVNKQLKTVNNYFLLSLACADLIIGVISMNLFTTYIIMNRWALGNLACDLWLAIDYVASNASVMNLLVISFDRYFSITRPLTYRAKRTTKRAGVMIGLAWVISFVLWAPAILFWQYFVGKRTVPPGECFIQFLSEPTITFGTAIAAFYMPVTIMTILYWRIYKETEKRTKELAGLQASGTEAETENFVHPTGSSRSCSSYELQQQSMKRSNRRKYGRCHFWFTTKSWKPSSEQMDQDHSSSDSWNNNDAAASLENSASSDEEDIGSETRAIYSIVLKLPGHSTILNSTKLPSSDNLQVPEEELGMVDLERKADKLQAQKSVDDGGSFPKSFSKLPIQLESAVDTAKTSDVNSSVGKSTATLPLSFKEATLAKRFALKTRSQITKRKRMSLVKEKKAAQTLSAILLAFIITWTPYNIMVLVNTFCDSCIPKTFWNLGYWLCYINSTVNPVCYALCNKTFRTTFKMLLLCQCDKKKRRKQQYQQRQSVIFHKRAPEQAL

[7] = target: T6, Muscarinic acetylcholine receptor M3; experiment: Agonist activity at human muscarinic M3 receptor at 30 uM by calcium mobilization assay relative to acetylcholine; format: functional
Target sequence in this assay (P20309 whole entry, looked up): as the sequence (P20309 whole entry) above

[8] = target: T7, Muscarinic acetylcholine receptor M2 (Homo sapiens) (UniProt P08172); experiment: Antagonist activity at human muscarinic M2 receptor assessed as remaining activity measured as percentage of maximum response generated from 80% of saturating dose of ACh at 30 uM by calcium mobilization assay; format: functional
T7 sequence (whole entry): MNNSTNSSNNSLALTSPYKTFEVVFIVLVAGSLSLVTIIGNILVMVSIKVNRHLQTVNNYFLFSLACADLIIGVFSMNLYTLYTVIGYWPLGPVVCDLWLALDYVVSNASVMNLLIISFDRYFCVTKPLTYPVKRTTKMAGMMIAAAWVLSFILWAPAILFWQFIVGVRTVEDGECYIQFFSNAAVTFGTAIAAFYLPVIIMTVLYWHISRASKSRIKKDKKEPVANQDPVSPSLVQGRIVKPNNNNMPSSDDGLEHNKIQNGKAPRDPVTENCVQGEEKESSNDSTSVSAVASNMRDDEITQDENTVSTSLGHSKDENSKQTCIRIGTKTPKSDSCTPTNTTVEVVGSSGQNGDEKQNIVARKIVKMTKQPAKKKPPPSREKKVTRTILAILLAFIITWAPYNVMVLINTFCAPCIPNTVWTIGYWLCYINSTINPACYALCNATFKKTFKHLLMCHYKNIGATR

[9] = target: T8, Muscarinic acetylcholine receptor M2 (Homo sapiens, UniProt P08172); experiment: Antagonist activity at human muscarinic M2 receptor by calcium mobilization assay; format: functional
T8 sequence (P08172 whole entry): T7 sequence (whole entry)

[10] = target: T9, Muscarinic acetylcholine receptor M5 (Homo sapiens) (UniProt P08912); experiment: Agonist activity at human muscarinic M5 receptor at 30 uM by calcium mobilization assay relative to acetylcholine; format: functional
T9 sequence (whole entry): T3 sequence (P08912 whole entry)

[11] = AUC in rat at 10 mg/kg, po; format: ADME, organism-based; set-up: dose 10 mg/kg, route oral; conditions: plasma
[12] = target: T5, Muscarinic acetylcholine receptor M4; experiment: Agonist activity at human muscarinic M4 receptor by calcium mobilization assay; format: functional
[13] = Half life in rat at 1 mg/kg, iv and 10 mg/kg, po; format: ADME, organism-based; conditions: in vivo
[14] = target: T7, Muscarinic acetylcholine receptor M2 (Homo sapiens); experiment: Agonist activity at human muscarinic M2 receptor at 30 uM by calcium mobilization assay relative to acetylcholine; format: functional
[15] = target: T2, Muscarinic acetylcholine receptor M4 (Homo sapiens); experiment: Agonist activity at human muscarinic M4 receptor at 30 uM by calcium mobilization assay relative to acetylcholine; format: functional
[16] = target: T4, Muscarinic acetylcholine receptor M1; experiment: Agonist activity at human muscarinic M1 receptor; format: functional; conditions: read-out: EC50
[17] = Oral bioavailability in rat at 10 mg/kg; format: ADME, organism-based; conditions: in vivo
[18] = Clearance in rat at 1 mg/kg, iv and 10 mg/kg, po; format: ADME, organism-based; conditions: in vivo
[19] = target: T8, Muscarinic acetylcholine receptor M2; experiment: Agonist activity at human muscarinic M2 receptor by calcium mobilization assay; format: functional
[20] = target: T1, Muscarinic acetylcholine receptor M1 (Homo sapiens); experiment: Agonist activity at human muscarinic M1 receptor at 30 uM relative to acetylcholine; format: functional
[21] = target: Muscarinic acetylcholine receptors; M1 & M2 (Homo sapiens) (UniProt P11229+P08172); experiment: Selectivity ratio of EC50 for human muscarinic M2 receptor to EC50 for human muscarinic M1 receptor
[22] = AUC in rat at 1 mg/kg, iv; format: ADME, organism-based; set-up: dose 1 mg/kg, route intravenous; conditions: plasma
[23] = Volume of distribution at steady state in rat at 1 mg/kg, iv and 10 mg/kg, po; format: ADME, organism-based; conditions: in vivo, read-out: Vdss
[24] = target: T1, Muscarinic acetylcholine receptor M1 (Homo sapiens); experiment: Agonist activity at human muscarinic M1 receptor expressed in TREx293 cells assessed as increase of soluble APPalpha release at 2 uM; format: functional, cell-based; conditions: HEK293
[25] = target: T6, Muscarinic acetylcholine receptor M3; experiment: Antagonist activity at human muscarinic M3 receptor by calcium mobilization assay
Target sequence in this assay (P20309 whole entry): as the sequence (P20309 whole entry) above

[26] = target: T6, Muscarinic acetylcholine receptor M3; experiment: Antagonist activity at human muscarinic M3 receptor assessed as remaining activity measured as percentage of maximum response generated from 80% of saturating dose of ACh at 30 uM by calcium mobilization assay; format: functional
Target sequence in this assay (P20309 whole entry, looked up): as the sequence (P20309 whole entry) above

[27] = target: T3, Muscarinic acetylcholine receptor M5; experiment: Antagonist activity at human muscarinic M5 receptor by calcium mobilization assay; format: functional

Row | SMILES | Activity [1] | Activity [2] | EC50 ([3]; read-out: EC50) | EC50 [4] | IC50 ([5]; read-out: IC50) | Activity [10] | EC50 [16] | Activity [20] | Activity [24] | EC50 [19] | IC50 [9] | EC50 [6] | EC50 [12] | IC50 [5] | other results
1 | CCCCC1CCN(CCCN2C(=O)COc3cc(F)ccc32)CC1 | 81% | 26% | 1000 nM | 41 nM | > 10000 nM | 28% | – | – | – | – | – | – | – | – | EC50 ([6]; read-out: EC50): 5900 nM; Activity [7]: 19%; Activity [8]: 30%; IC50 ([9]; read-out: IC50): > 10000 nM
2 | CCOC(=O)N1C2CCC1CC(N1CCC[C@@H](NC(=O)c3ccccc3C)C1)C2 (mixture of isomers) | 59% | – | 3700 nM | 17 nM | – | 62% | 59 nM | 75% | Active | – | – | – | – | – | AUC [11]: 639 ng·h/mL; EC50 ([12]; read-out: EC50): > 10000 nM; half-life [13]: 46 min; Activity [14]: 66%; Activity [15]: 28%; bioavailability [17]: 70%; EC50 ([6]; read-out: EC50): > 10000 nM; clearance [18]: 189 mL/min/kg; EC50 ([19]; read-out: EC50): 1800 nM; Activity [7]: 36%; Ratio EC50 [21]: 100; AUC [22]: 92.2 ng·h/mL; Vd [23]: 11.8 L/kg
3 | CCOC(=O)N1[C@@H]2CC[C@H]1C[C@@H](NCCNC(=O)c1ccccc1)C2 | 37% | 2% | – | – | 3100 nM | – | 110 nM | 34% | Active | – | – | – | – | – | IC50 [25]: > 10000 nM; Activity [8]: 15%; Activity [26]: 13%; IC50 ([9]; read-out: IC50): > 10000 nM; IC50 ([27]; read-out: IC50): 4900 nM
4 | CCOC(=O)N1C[C@H]2CC[C@@H](C1)[C@H]2NCCNC(=O)c1ccccc1 | 46% | 48% | 2800 nM | 18 nM | > 10000 nM | 31% | 92 nM | 53% | Active | Not Active | Not Active | – | – | – | IC50 [25]: > 10000 nM; Activity [26]: 45%
5 | CCOC(=O)N1C[C@H]2CC[C@@H](C1)[C@H]2NCCNC(=O)c1cccc(Cl)c1 | 58% | 40% | 4200 nM | 96 nM | > 10000 nM | 22% | 47 nM | 52% | – | Not Active | Not Active | Not Active | – | – | –
6 | CCOC(=O)N1CCC(NCCNC(=O)c2ccccc2C)CC1 | 34% | – | – | 2600 nM | – | – | 1600 nM | 35% | Active | Not Active | Not Active | Not Active | Not Active | Not Active | EC50 [3]: Not Active; IC50 [27]: Not Active
7 | CCOC(=O)N1[C@@H]2CC[C@H]1C[C@H](NCCNC(=O)c1ccccc1)C2 | 57% | – | – | – | – | – | 970 nM | 49% | Active | Not Active | Not Active | Not Active | Not Active | Not Active | EC50 [3]: Not Active; IC50 [27]: Not Active
8 | CCOC(=O)N1C2CCC1CC(N1CCC[C@@H](NC(=O)c3ccccc3)C1)C2 (mixture of isomers) | 65% | – | > 10000 nM | 350 nM | – | 21% | 840 nM | 75% | Active | – | – | Not Active | Not Active | Not Active | Activity [14]: 27%; EC50 ([19]; read-out: EC50): > 10000 nM
